{
  "source": "ChEMBL document CHEMBL4765403",
  "about": "“Augmentation of the antitumor effects of PARP inhibitors in triple-negative breast cancer via degradation by hydrophobic tagging modulation” (Eur J Med Chem, 2020)",
  "key": {"MDA-MB-231 [1]": {"test_system": "MDA-MB-231", "assay": "Induction of endoplasmic reticulum stress in human MDA-MB-231 cells assessed as upregulation in ATF4 gene expression at 5 to 10 uM incubated for 24 to 48 hrs by RT-PCR analysis", "type": "functional, cell-based", "conditions": "dose 5-10 µM, time 24-48 hrs"}, "MDA-MB-231 [2]": {"test_system": "MDA-MB-231", "assay": "Induction of apoptosis in human MDA-MB-231 cells assessed as downregulation in survivin gene expression at 5 to 10 uM incubated for 24 to 48 hrs by RT-PCR analysis", "type": "functional, cell-based", "conditions": "dose 5-10 µM, time 24-48 hrs"}, "[3]": {"molecular_target": "Poly [ADP-ribose] polymerase 1 (Homo sapiens) (UniProt P09874)", "sequence (P09874 whole entry)": "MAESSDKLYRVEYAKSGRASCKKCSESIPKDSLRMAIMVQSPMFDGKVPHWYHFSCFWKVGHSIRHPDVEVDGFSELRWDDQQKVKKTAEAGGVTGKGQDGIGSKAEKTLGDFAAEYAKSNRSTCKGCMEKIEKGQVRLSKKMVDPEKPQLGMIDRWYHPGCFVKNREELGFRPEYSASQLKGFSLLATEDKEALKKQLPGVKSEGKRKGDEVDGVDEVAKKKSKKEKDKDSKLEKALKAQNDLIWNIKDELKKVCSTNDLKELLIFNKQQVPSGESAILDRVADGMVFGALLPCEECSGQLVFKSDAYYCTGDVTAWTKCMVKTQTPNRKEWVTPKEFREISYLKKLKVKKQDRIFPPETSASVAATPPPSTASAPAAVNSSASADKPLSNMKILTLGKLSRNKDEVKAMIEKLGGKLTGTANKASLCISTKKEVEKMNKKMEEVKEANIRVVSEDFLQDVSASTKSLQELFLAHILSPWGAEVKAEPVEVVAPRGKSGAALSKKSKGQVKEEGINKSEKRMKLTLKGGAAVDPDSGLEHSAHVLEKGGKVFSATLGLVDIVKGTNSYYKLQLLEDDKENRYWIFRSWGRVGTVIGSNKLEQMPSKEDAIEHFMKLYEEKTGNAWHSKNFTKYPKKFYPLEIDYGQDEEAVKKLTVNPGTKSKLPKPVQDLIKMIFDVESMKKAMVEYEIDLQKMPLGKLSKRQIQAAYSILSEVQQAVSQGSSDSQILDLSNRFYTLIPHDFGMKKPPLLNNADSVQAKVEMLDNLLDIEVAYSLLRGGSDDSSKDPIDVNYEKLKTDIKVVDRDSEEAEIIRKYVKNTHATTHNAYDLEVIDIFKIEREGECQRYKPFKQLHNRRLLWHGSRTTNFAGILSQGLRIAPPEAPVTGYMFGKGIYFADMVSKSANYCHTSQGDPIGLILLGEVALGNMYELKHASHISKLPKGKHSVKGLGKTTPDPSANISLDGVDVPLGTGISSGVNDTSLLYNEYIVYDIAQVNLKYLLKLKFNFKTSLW", "assay": "Induction of PARP1 degradation in triple-negative human MDA-MB-468 cells assessed as fold change in PARP1 protein expression at 5 uM incubated for 24 hrs by Western blot analysis relative to control", "type": "cell-based"}, "[4]": {"molecular_target": "Poly [ADP-ribose] polymerase 1 (Homo sapiens) (UniProt P09874)", "assay": "Induction of PARP1 degradation in triple-negative human MDA-MB-231 cells assessed as fold change in PARP1 protein expression at 0.1 uM incubated for 48 hrs by Western blot analysis relative to control", "type": "cell-based"}, "[5]": {"molecular_target": "Poly [ADP-ribose] polymerase 1 (Homo sapiens) (UniProt P09874)", "assay": "Induction of PARP1 degradation in triple negative human MDA-MB-468 cells assessed as fold change in PARP1 protein expression at 5 uM incubated for 48 hrs by Western blot analysis relative to control", "type": "cell-based"}, "[6]": {"molecular_target": "Poly [ADP-ribose] polymerase 1 (Homo sapiens) (UniProt P09874)", "assay": "Induction of PARP1 degradation in triple-negative human MDA-MB-231 cells assessed as fold change in PARP1 protein expression at 2.5 uM incubated for 24 hrs by Western blot analysis relative to control", "type": "cell-based"}, "MDA-MB-231 [7]": {"test_system": "MDA-MB-231", "assay": "Induction of autophagy in human MDA-MB-231 cells assessed as autophagosome, large double membrane-bound vesicles enclosing cytoplasmic components formation at 5 uM incubated for 24 to 48 hrs by transmission electron microscopy", "type": "functional, cell-based", "conditions": "time 24-48 hrs"}, "MDA-MB-468 [8]": {"test_system": "MDA-MB-468", "assay": "Induction of autophagy in human MDA-MB-468 cells assessed as upregulation in LC3B protein expression at 5 uM measured after 48 hrs by Western blot analysis", "type": "functional, cell-based"}, "MDA-MB-231 [9]": {"test_system": "MDA-MB-231", "assay": "Induction of autophagy in human MDA-MB-231 cells assessed as upregulation in LC3A gene expression at 5 to 10 uM measured after 24 to 48 hrs by RT-PCR analysis", "type": "functional, cell-based", "conditions": "dose 5-10 µM, time 24-48 hrs"}, "MDA-MB-231 [10]": {"test_system": "MDA-MB-231", "assay": "Cytotoxicity against human MDA-MB-231 cells assessed as reduction in cell viability measured after 96 hrs by CCK8 assay", "type": "functional, cell-based", "conditions": "MDA-MB-231, 96 h"}, "[11]": {"molecular_target": "Poly [ADP-ribose] polymerase 1 (Homo sapiens) (UniProt P09874)", "assay": "Induction of PARP1 degradation in triple-negative human MDA-MB-231 cells assessed as fold change in PARP1 protein expression at 0.5 uM incubated for 24 hrs by Western blot analysis relative to control", "type": "cell-based"}, "[12]": {"molecular_target": "Poly [ADP-ribose] polymerase 1 (Homo sapiens) (UniProt P09874)", "assay": "Induction of PARP1 degradation in triple-negative human MDA-MB-231 cells assessed as fold change in PARP1 protein expression at 1 uM incubated for 24 hrs by Western blot analysis relative to control", "type": "cell-based"}, "MDA-MB-231 [13]": {"test_system": "MDA-MB-231", "assay": "Cytotoxicity against triple-negative human MDA-MB-231 cells assessed as reduction in cell viability measured after 48 hrs by CCK8 assay", "type": "functional, cell-based", "conditions": "MDA-MB-231, 48 h"}, "[14]": {"molecular_target": "Poly [ADP-ribose] polymerase 1 (Homo sapiens) (UniProt P09874)", "assay": "Induction of PARP1 degradation in triple-negative human MDA-MB-231 cells assessed as fold change in PARP1 protein expression at 1 uM incubated for 48 hrs by Western blot analysis relative to control", "type": "cell-based"}, "MDA-MB-231 [15]": {"test_system": "MDA-MB-231", "assay": "Cytotoxicity against human MDA-MB-231 cells assessed as reduction in cell growth at 5 uM measured after 96 hrs by CCK8 assay relative to control", "type": "functional"}, "MDA-MB-468 [16]": {"test_system": "MDA-MB-468", "assay": "Induction of endoplasmic reticulum stress in human MDA-MB-468 cells assessed as increase in XBP-1s protein expression at 5 uM incubated for 48 hrs by Western blot analysis", "type": "functional, cell-based"}, "[17]": {"molecular_target": "Poly [ADP-ribose] polymerase 1 (Homo sapiens) (UniProt P09874)", "assay": "Induction of PARP1 degradation in human MDA-MB-231 cells at 5 uM incubated for 48 hrs in presence of proteasome inhibitor, carfilzomib by immunoblotting analysis", "type": "cell-based"}, "[18]": {"molecular_target": "Poly [ADP-ribose] polymerase 1 (Homo sapiens) (UniProt P09874)", "assay": "Induction of PARP1 degradation in human MDA-MB-468 cells at 5 uM incubated for 48 hrs in presence 5 uM PARP1 inhibitor olaparib by Western blot analysis", "type": "cell-based"}, "MDA-MB-231 [19]": {"test_system": "MDA-MB-231", "assay": "Induction of autophagy in human MDA-MB-231 cells assessed as upregulation in LC3B protein expression at 5 uM measured after 48 to 72 hrs by Western blot analysis", "type": "functional, cell-based", "conditions": "time 48-72 hrs"}, "[20]": {"molecular_target": "Poly [ADP-ribose] polymerase 1 (Homo sapiens) (UniProt P09874)", "assay": "Induction of PARP1 degradation in human HCC1937 cells harboring BRCA mutation assessed as fold change in PARP1 protein expression at 5 uM incubated for 24 hrs by Western blot analysis relative to control", "type": "cell-based"}, "[21]": {"molecular_target": "Poly [ADP-ribose] polymerase 1 (Homo sapiens) (UniProt P09874)", "assay": "Induction of PARP1 degradation in human MDA-MB-468 cells assessed as fold change in PARP1 protein expression at 5 uM incubated for 48 hrs in presence of pan-caspase inhibitor, Z-VAD-FMK by Western blot analysis", "type": "cell-based"}, "MDA-MB-231 [22]": {"test_system": "MDA-MB-231", "assay": "Induction of endoplasmic reticulum stress in human MDA-MB-231 cells assessed as increase in XBP-1s protein expression at 5 uM measured after 24 to 72 hrs by Western blot analysis", "type": "functional, cell-based", "conditions": "time 24-72 hrs"}, "MDA-MB-231 [23]": {"test_system": "MDA-MB-231", "assay": "Induction of apoptosis in human MDA-MB-231 cells assessed as increase in p21 protein expression at 5 uM incubated for 24 to 48 hrs by Western blot analysis", "type": "functional, cell-based", "conditions": "time 24-48 hrs"}, "[24]": {"molecular_target": "Poly [ADP-ribose] polymerase 1 (Homo sapiens) (UniProt P09874)", "assay": "Induction of PARP1 degradation in human MDA-MB-231 cells at 5 uM pretreated for 2 hrs with proteasome inhibitor, bortezomib for 2 hrs followed by incubation with compound for 48 hrs by immunoblotting analysis", "type": "cell-based"}, "MDA-MB-231 [25]": {"test_system": "MDA-MB-231", "assay": "Induction of endoplasmic reticulum stress in human MDA-MB-231 cells assessed as upregulation in CHOP gene expression at 5 to 10 uM incubated for 24 to 48 hrs by RT-PCR analysis", "type": "functional, cell-based", "conditions": "dose 5-10 µM, time 24-48 hrs"}, "MDA-MB-231 [26]": {"test_system": "MDA-MB-231", "assay": "Induction of apoptosis in human MDA-MB-231 cells assessed as upregulation in p21 gene expression at 5 to 10 uM incubated for 24 to 48 hrs by RT-PCR analysis", "type": "functional, cell-based", "conditions": "dose 5-10 µM, time 24-48 hrs"}, "MDA-MB-231 [27]": {"test_system": "MDA-MB-231", "assay": "Induction of apoptosis in human MDA-MB-231 cells assessed as increase in Bax protein expression at 5 uM incubated for 24 to 48 hrs by Western blot analysis", "type": "functional, cell-based", "conditions": "time 24-48 hrs"}, "MDA-MB-468 [28]": {"test_system": "MDA-MB-468", "assay": "Cytotoxicity against human MDA-MB-468 cells assessed as reduction in cell viability measured after 96 hrs by CCK8 assay", "type": "functional, cell-based", "conditions": "MDA-MB-468, 96 h"}},
  "note": "pIC50: −log10 of the molar value. Activity calls are given as the source filed them. No cut-off for these calls is given here.",
  "data": [
    {"smiles": "O=C(CC1c2ccccc2-c2ccccc21)N1CCN(C(=O)c2cc(Cc3n[nH]c(=O)c4ccccc34)ccc2F)CC1", "values": [
      {"measurement": "Activity", "setting": "MDA-MB-231 [1]", "result": "Active"},
      {"measurement": "Activity", "setting": "MDA-MB-231 [2]", "result": "Active"},
      {"measurement": "fold change (FC)", "setting": "[3]", "result": 0.8},
      {"measurement": "fold change (FC)", "setting": "[4]", "result": 0.6},
      {"measurement": "fold change (FC)", "setting": "[5]", "result": 0.3},
      {"measurement": "fold change (FC)", "setting": "[6]", "result": 0.8},
      {"measurement": "Activity", "setting": "MDA-MB-231 [7]", "result": "Active"},
      {"measurement": "Activity", "setting": "MDA-MB-468 [8]", "result": "Active"},
      {"measurement": "Activity", "setting": "MDA-MB-231 [9]", "result": "Active"},
      {"measurement": "pIC50", "setting": "MDA-MB-231 [10]", "result": 5.68},
      {"measurement": "fold change (FC)", "setting": "[11]", "result": 0.8},
      {"measurement": "fold change (FC)", "setting": "[12]", "result": 0.8},
      {"measurement": "pIC50", "setting": "MDA-MB-231 [13]", "result": 4.97},
      {"measurement": "fold change (FC)", "setting": "[14]", "result": 0.7},
      {"measurement": "inhibition at 5 µM", "setting": "MDA-MB-231 [15]", "result": 80, "unit": "%"},
      {"measurement": "Activity", "setting": "MDA-MB-468 [16]", "result": "Active"},
      {"measurement": "Activity", "setting": "[17]", "result": "inactive"},
      {"measurement": "Activity", "setting": "[18]", "result": "inactive"},
      {"measurement": "Activity", "setting": "MDA-MB-231 [19]", "result": "Active"},
      {"measurement": "fold change (FC)", "setting": "[20]", "result": 0.3},
      {"measurement": "fold change (FC)", "setting": "[21]", "result": 0.4},
      {"measurement": "Activity", "setting": "MDA-MB-231 [22]", "result": "Active"},
      {"measurement": "Activity", "setting": "MDA-MB-231 [23]", "result": "Active"},
      {"measurement": "Activity", "setting": "[24]", "result": "inactive"},
      {"measurement": "Activity", "setting": "MDA-MB-231 [25]", "result": "Active"},
      {"measurement": "Activity", "setting": "MDA-MB-231 [26]", "result": "Active"},
      {"measurement": "Activity", "setting": "MDA-MB-231 [27]", "result": "Active"},
      {"measurement": "pIC50", "setting": "MDA-MB-468 [28]", "result": 5.24}
    ]}
  ]
}
